Literature values in patent US7771760B2, “Oils of capsaicinoids and methods of making and using the same” (NeurogesX, Inc., priority 2005, dated 2010).

Q: Which “solubility in organic solvents” value (benzene, alcohol, ketone, ether and paraffin oils) does the source give for `COc1cc(CNC(=O)CCCC/C=C/C(C)C)ccc1O` [capsaicin] here?
A: Its value is “soluble”.

Q: What about the “solubility in cold water” value (cold water) of the same compound?
A: The value was “sparingly soluble”.
